Calls of active or inactive are those of the source. The rule behind the calls is not given here.
How the values were obtained:
[1] = test system: NIH3T3; experiment: Antiproliferative activity against mouse NIH/3T3 cells assessed as inhibition of cell growth incubated for 24 to 48 hrs by CCK8 assay; type: functional, cell-based
[2] = target: T1, Protein deacetylase HDAC6 (Homo sapiens) (UniProt Q9UBN7); experiment: Inhibition of HDAC6 in human RPMI-8226 cells assessed as increase in acetylated histone H4 level at 0.25 to 1 uM incubated for 24 hrs by western blot analysis; type: cell-based; conditions: dose 0.25-1 µM
T1 sequence (whole entry): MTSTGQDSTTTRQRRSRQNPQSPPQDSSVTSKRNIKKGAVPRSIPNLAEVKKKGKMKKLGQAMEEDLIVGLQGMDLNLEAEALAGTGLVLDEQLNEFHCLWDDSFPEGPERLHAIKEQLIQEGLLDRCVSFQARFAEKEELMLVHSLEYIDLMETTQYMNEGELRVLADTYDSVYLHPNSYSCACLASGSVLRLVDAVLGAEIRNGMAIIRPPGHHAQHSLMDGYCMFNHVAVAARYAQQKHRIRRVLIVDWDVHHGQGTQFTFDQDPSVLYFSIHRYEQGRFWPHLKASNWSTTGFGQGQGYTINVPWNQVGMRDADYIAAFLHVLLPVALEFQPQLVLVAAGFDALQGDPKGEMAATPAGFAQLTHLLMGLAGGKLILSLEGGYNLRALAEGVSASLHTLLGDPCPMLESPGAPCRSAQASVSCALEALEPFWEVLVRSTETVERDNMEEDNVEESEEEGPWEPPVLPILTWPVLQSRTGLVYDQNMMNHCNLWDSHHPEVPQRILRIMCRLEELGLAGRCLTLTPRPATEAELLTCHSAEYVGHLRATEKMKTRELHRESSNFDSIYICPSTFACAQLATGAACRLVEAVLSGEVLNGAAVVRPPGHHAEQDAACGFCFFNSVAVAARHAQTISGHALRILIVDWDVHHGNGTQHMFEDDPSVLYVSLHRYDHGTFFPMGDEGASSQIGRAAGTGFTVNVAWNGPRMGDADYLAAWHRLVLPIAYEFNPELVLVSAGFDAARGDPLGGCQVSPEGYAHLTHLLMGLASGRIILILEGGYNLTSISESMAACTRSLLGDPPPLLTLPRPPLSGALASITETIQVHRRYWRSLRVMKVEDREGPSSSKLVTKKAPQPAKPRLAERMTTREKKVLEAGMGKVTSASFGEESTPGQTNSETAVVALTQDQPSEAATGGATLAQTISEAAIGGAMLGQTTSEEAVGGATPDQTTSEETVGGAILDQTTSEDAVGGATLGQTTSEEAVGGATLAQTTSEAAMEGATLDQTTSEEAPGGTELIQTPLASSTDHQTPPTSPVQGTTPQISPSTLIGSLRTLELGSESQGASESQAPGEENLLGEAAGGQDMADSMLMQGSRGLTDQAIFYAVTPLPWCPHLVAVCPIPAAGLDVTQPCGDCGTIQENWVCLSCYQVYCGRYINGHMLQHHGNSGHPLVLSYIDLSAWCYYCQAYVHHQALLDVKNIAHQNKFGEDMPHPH

[3] = target: T2, Protein deacetylase HDAC6 (Mus musculus) (UniProt Q9Z2V5); experiment: In vivo inhibition of HDAC6 in bleomycin-induced idiopathic pulmonary fibrosis C57BL/6J mouse model assessed as increase in acetylated histone H4 level in lung at 25 mg/kg, ig administered via gavage and measured on day 14 by western blot analysis; type: functional, organism-based; conditions: time 14.0 day
T2 sequence (whole entry): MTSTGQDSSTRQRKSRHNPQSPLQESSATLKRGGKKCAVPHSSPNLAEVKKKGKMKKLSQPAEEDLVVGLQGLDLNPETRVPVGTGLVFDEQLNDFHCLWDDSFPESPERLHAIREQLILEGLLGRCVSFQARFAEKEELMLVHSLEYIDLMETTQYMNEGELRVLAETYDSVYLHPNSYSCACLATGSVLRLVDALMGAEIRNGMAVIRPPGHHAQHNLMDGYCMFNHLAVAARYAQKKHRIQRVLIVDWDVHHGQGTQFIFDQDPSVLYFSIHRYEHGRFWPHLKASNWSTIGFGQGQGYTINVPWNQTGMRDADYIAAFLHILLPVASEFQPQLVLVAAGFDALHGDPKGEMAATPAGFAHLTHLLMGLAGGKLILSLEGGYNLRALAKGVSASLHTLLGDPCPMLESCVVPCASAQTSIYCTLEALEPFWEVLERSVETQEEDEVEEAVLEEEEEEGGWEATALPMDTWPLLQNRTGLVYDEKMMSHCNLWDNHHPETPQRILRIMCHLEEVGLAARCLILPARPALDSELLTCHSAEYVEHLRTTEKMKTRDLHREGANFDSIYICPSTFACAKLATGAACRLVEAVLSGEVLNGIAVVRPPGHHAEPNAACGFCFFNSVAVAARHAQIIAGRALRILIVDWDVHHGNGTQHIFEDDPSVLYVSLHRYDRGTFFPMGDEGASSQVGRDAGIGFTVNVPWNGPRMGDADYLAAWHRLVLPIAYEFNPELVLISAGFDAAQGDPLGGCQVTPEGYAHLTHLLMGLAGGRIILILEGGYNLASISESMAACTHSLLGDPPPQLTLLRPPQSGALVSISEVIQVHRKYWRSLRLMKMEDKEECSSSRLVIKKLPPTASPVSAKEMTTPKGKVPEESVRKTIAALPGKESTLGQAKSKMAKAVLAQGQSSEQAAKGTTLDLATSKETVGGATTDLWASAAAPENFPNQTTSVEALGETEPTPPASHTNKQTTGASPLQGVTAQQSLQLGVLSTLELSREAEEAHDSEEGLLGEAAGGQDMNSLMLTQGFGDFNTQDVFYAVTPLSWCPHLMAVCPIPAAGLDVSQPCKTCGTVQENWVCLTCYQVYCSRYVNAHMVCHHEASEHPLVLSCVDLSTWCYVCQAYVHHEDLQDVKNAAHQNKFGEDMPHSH

[4] = target: T1, Protein deacetylase HDAC6 (Homo sapiens); experiment: Inhibition of HDAC6 in human RPMI-8226 cells assessed as increase in acetylated histone H3 level at 0.25 to 1 uM incubated for 24 hrs by western blot analysis; type: cell-based; conditions: dose 0.25-1 µM
[5] = target: T1, Protein deacetylase HDAC6 (Homo sapiens); experiment: Inhibition of HDAC6 (unknown origin) at 1 uM incubated for 30 mins by fluorometric analysis
[6] = test system: RPMI-8226; experiment: Increase in TRAIL protein expression in human RPMI-8226 cells at 0.5 uM incubated for 24 hrs by western blot analysis; type: functional, cell-based
[7] = Toxicity against silicosis C57BL/6J mouse model assessed as AST index in serum at 50 mg/kg, ig administered daily via gavage and measured on day 28; type: organism-based; conditions: in vivo, po, 672 h, time 28 day
[8] = target: Histone deacetylase 2 (Homo sapiens, UniProt Q92769); experiment: Inhibition of HDAC2 (unknown origin) at 1 uM incubated for 30 mins by fluorometric analysis
[9] = target: T2, Protein deacetylase HDAC6 (Mus musculus); experiment: In vivo inhibition of HDAC6 in bleomycin-induced idiopathic pulmonary fibrosis C57BL/6J mouse model assessed as increase in acetylated alpha-tubulin level in lung at 50 mg/kg, ig administered via gavage and measured on day 14 by western blot analysis; type: functional, organism-based; conditions: time 14.0 day

Chain of Histone deacetylase 2 (Q92769 whole entry): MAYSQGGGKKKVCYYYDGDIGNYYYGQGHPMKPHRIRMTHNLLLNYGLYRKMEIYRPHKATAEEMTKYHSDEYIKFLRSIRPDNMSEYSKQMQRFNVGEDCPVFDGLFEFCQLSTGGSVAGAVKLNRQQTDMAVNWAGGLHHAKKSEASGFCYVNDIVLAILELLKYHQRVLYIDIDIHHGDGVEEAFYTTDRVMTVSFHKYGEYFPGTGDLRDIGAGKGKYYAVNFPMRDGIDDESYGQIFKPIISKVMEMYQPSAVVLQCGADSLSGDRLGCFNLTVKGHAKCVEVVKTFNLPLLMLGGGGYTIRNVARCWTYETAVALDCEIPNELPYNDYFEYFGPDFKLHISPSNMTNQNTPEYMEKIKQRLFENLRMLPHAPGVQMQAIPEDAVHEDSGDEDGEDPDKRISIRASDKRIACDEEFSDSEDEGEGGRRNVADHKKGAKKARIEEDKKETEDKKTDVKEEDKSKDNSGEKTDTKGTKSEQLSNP

- inhibition [2]: Active
- inhibition [3]: inactive
- inhibition [4]: Active; Less Affected
- inhibition [5]: 94.8%
- inhibition [8]: 61.8%
Compound: O=C(NO)c1ccc(CN2C(=O)C3=C(CCN(Cc4cccc(Cl)c4)C3)N3CCN=C23)cc1
- IC50 [1]: 0.89 µM
- Activity [6]: Active; Comparable Activity To 1 Um Compound Iic And Greater Activity Compared To 1 Um Chidamide, Acy-1215
- Activity [7]: Non-toxic
- inhibition [9]: Active; Levels Lower Than The Positive Control, Acy-1215

— ChEMBL document CHEMBL6092154, “Design, synthesis, and evaluation of a novel TRAIL-activated HDAC6 inhibitor for the treatment of pulmonary fibrosis” (Bioorg Med Chem, 2024)
